{"source": "patent US9737502B2", "about": "“Calebin A for hepatic steatosis” (SAMI LABS LIMITED, priority 2011, dated 2017)", "key": {"IL-6": {"system": "IL-6", "assay": "Estimation of IL-6 in adipocyte supernatant by ELISA", "type": "cell-based", "details": "human adipocytes", "description": "3T3-L1 cells approximately 60×10^4 cells are seeded for 48-72 hrs to get 70-80% confluence. After 48 hrs 200 μl of AIM (Adipogenesis induction medium) freshly prepared is added. 72 hrs later 200 μl APM (Adipogenesis progression medium) with the test compounds in different concentrations is added to the wells. The cells are incubated for 48 hrs in a humidified atmosphere (37° C.) of 5% CO2 and 95% air. The supernatant is collected and stored for the estimation of leptin, adiponectin, IL-6 and TNF-α by ELISA. Cells are fixed by adding 100 μl of 10% formalin and ORO staining is done. OD is read at 492 nm in microplate reader. The results are expressed as IC50 values using Graphpad prism software.\nThe percentage of inhibition of adipogenesis is calculated as follows, % inhibition=C−T/[…] Where C-absorbance of Oil red 0 in differentiating/undifferentiated cells T-absorbance of Oil Red-O in sample treated differentiating/undifferentiated cells. The estimation of leptin, adiponectin, IL-6 and TNF-α is done according to user's manual from R&D Systems."}, "TNF-α [1]": {"system": "TNF-α", "assay": "Intracellular TNF-α in LPS-stimulated murine neutrophils (flow cytometry)", "type": "cell-based", "details": "for Expression of TNF-α Mean ± S.E: LPS Control 2.62 ± 0.01", "description": "The present inventors also adduce extra evidence to support the ability of Calebin A to suppress intracellular TNF and extracellular IL-1β in murine neutrophil systems (Table II, Table III). Neutrophils are isolated by histopaque gradient method tested for their ability to produce in vitro TNF-α following stimulation with Lipopolysaccharide (LPS). The cells were incubated with phycoerythrin (PE)-labeled anti-mouse TNF-α in the dark, and after being washed with sterile PBS, samples were resuspended in PBS (pH 7.4) and acquired directly on the flow cytometer (BDLSR; Becton Dickinson). A fluorescence trigger was set on the PE […] parameter of the gated neutrophil populations (10,000 events). Rolipram at 100 μg/ml was used as standard inhibitor of TNF-α in this study. Fluorescence compensation, data analysis, and data presentation were performed using Cell Quest Pro software (Becton Dickinson)."}, "IL-1β": {"system": "IL-1β", "assay": "Extracellular IL-1β in LPS-stimulated murine neutrophils", "type": "cell-based", "details": "for IL-1β Concentration: LPS Control 51.80 ± 2.18"}, "TNF-α [2]": {"system": "TNF-α", "assay": "Serum TNF-α in LPS-injected mice after 6 days oral treatment (ELISA)", "type": "in vivo, Swiss albino mice", "details": "graded doses, then LPS 1 mg/kg i.v., serum 90 min after LPS", "description": "The present inventors also adduce study data on the ability of Calebin A to reduce expression of Extracellular TNF-α, IL-1 beta [FIG. 6] and IL-6 [FIG. 7] in serum from treated mice (in-vivo models). Swiss albino male mice aged 6-8 weeks were maintained at 22±2° C. under 12/12 h light dark cycle. Mice received oral treatment of test drugs at graded doses (w/v) for 6 days, followed by intravenous injection of 1 mg/kg of LPS according to the method described by Brieva A, Guerrero A, Alonso-Lebrero J L and Pivel J P. 2001. Immunoferon, a glycoconjugate of natural origin, inhibits LPS-induced TNF-α production and inflammatory responses. International Immunopharmacology 1, 1979-1987. Six mice were employed in each group and experiments were performed in triplicates. TNF-α, IL-1 beta and IL-6 production was evaluated by a commercial ELISA kits (R&D Systems) in serum from treated mice, 90 min after LPS injection. Rolipram at 30 mg/kg was used as standard drug."}, "leptin": {"system": "leptin", "assay": "Study 2: serum leptin by ELISA in obese mice", "type": "in vivo, C57 mice", "details": "Study 2, end of study period", "description": "Further, on completion of the study period blood samples were collected from all the animals in […] for estimation of systemic expression of leptin and adiponectin. Blood samples were collected humanely from retro-orbital plexus puncture method under mild ether anesthesia with the help of a fine capillary tube. The blood samples collected in tubes without anticoagulant were centrifuged at 3000 rpm for 10 minutes to obtain serum which was subjected to ELISA technique for the estimation of leptin and adiponectin. The import of leptin and adiponectin expression as biomarkers in obesity has been discussed in aforesaid paragraphs. […] Low systemic adiponectin levels have been cited as predictive factors in the progression of disease states like Type II Diabetes mellitus (Chamukuttan Snehalatha et al, “Plasma Adiponectin Is an Independent Predictor of Type 2 Diabetes in Asian Indians”, Diabetes Care December 2003 vol. 26 no. 12 3226-3229)."}, "[3]": {"system": "epididymal fat (adipocytes)", "assay": "Adipocyte size in epididymal fat of HFD mice (H&E histology)", "type": "in vivo, C57BL/6J mice", "details": "Calebin A 0.25% and 1%, 12 weeks", "description": "Fully differentiated adipocytes (8 days) previously untreated with Calebin A as described in procedural steps outlined in Example IV were treated with Calebin A at concentrations of 5-30 μM. Lipolysis was linked to the breakdown of lipids into glycerol that was released into the cell culture medium and detected thereof. […] Thus, in another most preferred embodiment, the present invention relates to a method of inducing lipolysis in mammalian adipocytes, said method comprising the step of treating mammalian adipocytes with varying concentrations of Calebin A to bring about the effect of dose dependant lipolysis in said adipocytes. […] Epididymal fat pads were dissected and fixed in 10% buffered formalin for at least 24 hours, then dehydrated with a sequence of ethanol solutions and processed for embedding in paraffin. Sections of 5-6 μm in thickness were cut, de-paraffinized, rehydrated, stained with haematoxylin & eosin (H&E) and subjected to photomicroscopic assessment. Adipocyte size was determined using a Nikon light microscope (Japan) equipped with an ocular micrometer at 200× magnification in 10 random fields per section. […]"}, "[4]": {"assay": "Study I: HFD-fed mice, diet supplementation 12 weeks; body weight, food intake, relative organ weights", "details": "for wt gain / Final wt / relative organ weight: Kidney / relative organ weight: liver: 12 weeks; for wt gain: HFD 16.50 ± 2.90; for Final wt: HFD 38.63 ± 3.92; for relative organ weight: Kidney / relative organ weight: liver: percentage of body weight; for Initial wt: baseline", "quoted_text": "Male C57BL/6J mice at 5 weeks of age were purchased from the BioLASCO Experimental Animal Center (Taiwan Co., Ltd., Taipei, Taiwan) and housed in a controlled atmosphere (25±1° C. at 50% relative humidity) and with a 12-h light/12-h dark cycle. […] Animals had free access to food and water at all times. Food cups were replenished with fresh diet daily. The diet intake of animals was monitored every day and the body weight was recorded weekly. […] At the end of the study, all animals were fasted overnight and sacrificed by CO2 asphyxiation. Blood samples were collected from the heart for biochemical analysis. Liver, spleen, kidney and fat pads (perigonadal, retroperitoneal and mesenteric fat) were immediately removed, weighed (TABLE VI) and photographed. […] Body weight was monitored weekly, and the average body weight of each group was expressed as the mean±SE. Statistical analysis was done by Student's t test. (*) P<0.01, compared with ND group; (#) P<0.01, compared with HFD group."}}}
{"smiles": "COc1cc(/C=C/C(=O)COC(=O)/C=C/c2ccc(O)c(OC)c2)ccc1O", "note": "[Calebin A]", "values": [{"measurement": "percentage inhibition of IL-6", "setting": "IL-6; 0.5 μg/ml", "value": 21.31, "unit": "%"}, {"measurement": "percentage inhibition of IL-6", "setting": "IL-6; 1.0 μg/ml", "value": 32.37, "unit": "%"}, {"measurement": "percentage inhibition of IL-6", "setting": "IL-6; 2.0 μg/ml", "value": 31.7, "unit": "%"}, {"measurement": "% Activity (suppression of TNF-α expression)", "setting": "TNF-α [1]; 0.5 μg/ml", "value": 28.62, "unit": "%↓"}, {"measurement": "Expression of TNF-α Mean ± S.E", "setting": "TNF-α [1]; 0.5 μg/ml", "value": "1.87 ± 0.04"}, {"measurement": "% Activity (suppression of TNF-α expression)", "setting": "TNF-α [1]; 1.0 μg/ml", "value": 35.11, "unit": "%↓"}, {"measurement": "Expression of TNF-α Mean ± S.E", "setting": "TNF-α [1]; 1.0 μg/ml", "value": "1.70 ± 0.02"}, {"measurement": "% Activity (suppression of TNF-α expression)", "setting": "TNF-α [1]; 2.0 μg/ml", "value": 39.31, "unit": "%↓"}, {"measurement": "Expression of TNF-α Mean ± S.E", "setting": "TNF-α [1]; 2.0 μg/ml", "value": "1.59 ± 0.05"}, {"measurement": "% Activity (suppression of IL-1 β expression)", "setting": "IL-1β; 0.5 μg/ml", "value": 20.38, "unit": "%↓"}, {"measurement": "IL-1β Concentration", "setting": "IL-1β; 0.5 μg/ml", "value": "41.24 ± 1.16", "unit": "pg/mL"}, {"measurement": "% Activity (suppression of IL-1 β expression)", "setting": "IL-1β; 1.0 μg/ml", "value": 24.20, "unit": "%↓"}, {"measurement": "IL-1β Concentration", "setting": "IL-1β; 1.0 μg/ml", "value": "39.26 ± 2.52", "unit": "pg/mL"}, {"measurement": "% Activity (suppression of IL-1 β expression)", "setting": "IL-1β; 2.0 μg/ml", "value": 28.26, "unit": "%↓"}, {"measurement": "IL-1β Concentration", "setting": "IL-1β; 2.0 μg/ml", "value": "37.16 ± 2.11", "unit": "pg/mL"}, {"measurement": "expression of TNF-α in serum", "setting": "TNF-α [2]", "value": "effective in reducing"}, {"measurement": "inhibition of leptin expression in the serum of obese animals", "setting": "leptin", "value": "insignificant effect"}, {"measurement": "size of adipocytes", "setting": "[3]", "value": "remarkable reduction"}, {"measurement": "wt gain", "setting": "[4]; HFD + 0.25% Calebin A", "value": "13.02 ± 2.52", "unit": "g"}, {"measurement": "Final wt", "setting": "[4]; HFD + 0.25% Calebin A", "value": "35.28 ± 2.38", "unit": "g"}, {"measurement": "relative organ weight: Kidney", "setting": "[4]; HFD + 0.25% Calebin A", "value": "1.22 ± 0.12", "unit": "%"}, {"measurement": "relative organ weight: liver", "setting": "[4]; HFD + 0.25% Calebin A", "value": "4.05 ± 0.28", "unit": "%"}, {"measurement": "Initial wt", "setting": "[4]; HFD + 0.25% Calebin A", "value": "22.27 ± 0.49", "unit": "g"}, {"measurement": "wt gain", "setting": "[4]; HFD + 1% Calebin A", "value": "10.12 ± 2.48", "unit": "g"}, {"measurement": "Final wt", "setting": "[4]; HFD + 1% Calebin A", "value": "31.99 ± 2.50", "unit": "g"}, {"measurement": "relative organ weight: Kidney", "setting": "[4]; HFD + 1% Calebin A", "value": "1.30 ± 0.15", "unit": "%"}, {"measurement": "relative organ weight: liver", "setting": "[4]; HFD + 1% Calebin A", "value": "4.00 ± 0.25", "unit": "%"}, {"measurement": "Initial wt", "setting": "[4]; HFD + 1% Calebin A", "value": "21.88 ± 0.91^ g"}]}
